Reference: patent publication US7601489B2, “Manganese ion regulation of reverse transcriptase activity and methods of modulating same” (The Johns Hopkins University, priority 2002, dated 2009)
Changes are numbered by the printed parent chain.

Experiments:
[1] = target: T1, wild-type Ty1 RT (Saccharomyces cerevisiae, UniProt P47098); test: biochemical
T1 sequence (P47098 1218-1755 limits assumed): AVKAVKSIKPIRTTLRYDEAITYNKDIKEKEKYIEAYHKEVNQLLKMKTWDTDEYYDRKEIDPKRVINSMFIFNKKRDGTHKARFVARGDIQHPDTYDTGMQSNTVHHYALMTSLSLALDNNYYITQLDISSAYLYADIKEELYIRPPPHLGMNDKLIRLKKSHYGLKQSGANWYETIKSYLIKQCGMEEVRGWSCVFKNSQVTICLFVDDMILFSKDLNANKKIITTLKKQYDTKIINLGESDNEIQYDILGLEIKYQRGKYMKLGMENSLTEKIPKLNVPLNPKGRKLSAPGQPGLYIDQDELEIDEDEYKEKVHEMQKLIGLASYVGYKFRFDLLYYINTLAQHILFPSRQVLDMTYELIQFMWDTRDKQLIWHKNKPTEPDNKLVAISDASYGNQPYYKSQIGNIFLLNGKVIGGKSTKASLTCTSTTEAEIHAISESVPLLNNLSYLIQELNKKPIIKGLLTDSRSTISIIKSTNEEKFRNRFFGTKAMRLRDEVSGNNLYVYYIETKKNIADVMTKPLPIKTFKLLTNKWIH
Protocol: (§1) VLP isolation and analysis. Yeast cells harboring pGTy1-H3-mhis3AI were grown in 2% galactose at 22° C. for approximately 24 hr. Cell pellets from these 0.5 L cultures were resuspended in 5 ml buffer B (Eichinger and Boeke, Cell 54: 955-966, 1988, which is incorporated herein by reference) and VLPs were isolated. […] Reactions were set up on ice, carried out for 1 hr at 22° C. and kept on ice while being spotted onto DE81 anion-exchange paper (Whatman International Ltd.; Maidstone, England).
(§2) Protein purification and analysis. Recombinant Ty1 RT (Wilhelm et al., supra, 2000) containing a cleavable N-terminal GST-tag was expressed in E. coli and purified first by affinity chromatography and then by ion exchange chromatography, as described for HIV-1 RT (Le Grice et al., Meth. Enzymol. 262: 130-44, 1995, which is incorporated herein by reference). The GST-tagged protein was eluted from a Glutathione Sepharose 4B™ gel (Amersham) gravity column with buffer (50 mM HEPES-KOH, pH 7.8, 200 mM KCl, 10% glycerol and 2 mM DTT) containing 30 mM reduced glutathione. 50 mM HEPES-KOH, pH 7.0 with 10% glycerol was added to the protein solution to lower the pH to 7.1 and the KCl concentration to 25 mM. The recombinant Ty1 RT was further purified over a Resource S™ (Amersham) cation-exchange column using a linear KCl gradient (25-500 mM). […] Purified hetero-dimeric HIV-1 RT (Le Grice et al., supra, 1995) was acquired through the AIDS Research and Reference Reagent Program, Division of AIDS, NIAID, NIH. Purified AMV RT was purchased from Roche Molecular Biochemicals (Mannheim, Germany). The RT assays performed on the purified RTs were carried out as described above, except in the presence of 20 mM KCl, and HIV-1 RT assays were incubated at 37° C. Each reaction contained 45 ng of purified recombinant Ty1 RT or 30 ng of heterodimeric HIV-1 RT.

[2] = target: T2, Ty1 RT (Saccharomyces cerevisiae, UniProt P47098); details: for Proposed activity of Ty1 RT, same metal at A site and B site: same ion at A site and B site
T2 sequence (P47098 1218-1755 limits assumed): T1 sequence (P47098 1218-1755 limits assumed)

[3] = target: T3, D211N Ty1 RT (Saccharomyces cerevisiae, UniProt P47098, D1428N); test: RT assay on purified RT, metal ion competition and metal activation kinetics
T3 sequence (P47098 1218-1755 D1428N): T1 sequence (P47098 1218-1755 limits assumed) with D211N
Description: Plasmid constructions. Plasmid c24-2I was generated by ligating the Stu I -Avr II fragment (4.3 kb) of c24-2 with the Sma I—Xba I fragment (6.0 kb) of pRS415 (LEU2 CEN6; Sikorski and Hieter, Genetics 122: 19-27, 1989, which is incorporated herein by reference). To simplify the cloning of the single amino-acid-substitution mutations into the PMR1 gene, c24-2L was constructed by removing the Xho I—Nde I fragment (1.2 kb) from c24-2I, filling in the ends with Klenow (New England Biolabs; Beverly Mass.), and ligating the blunt ends to recircularize the plasmid. Alanine substitution mutations, D778A and Q783A, were generated in the native PMR1 gene by replacing the Pst I—Sal I fragment (1.1 kb) of c24-2L with the corresponding fragment harboring the respective Pmr1p substitution mutation in the YEpHR1 backbone (Wei et al., J. Biol. Chem. 275: 23927-23932, 2000, which is incorporated herein by reference). The D53A substitution mutation was introduced into c24-2L by swapping in the Xba I fragment (0.3 kb) containing the Pmr1p substitution mutation in the YEpHR1 backbone (Wei et al., supra, 1999). Recombinant Ty1 RT (Wilhelm et al., supra, 2000) was PCR amplified and subcloned into the BamH I and Xho I sites of pGEX-4T-3 (Amersham Pharmacia Biotech; Piscataway N.J.). The D211N substitution mutation was generated by replacing the Sph I-Hind III fragment (0.4 kb) of the wild-type Ty1 RT expression construct with that of pJEF724 DD-DN (Uzun and Gabriel, supra, 2001).
as §1, §2

[4] = target: Ty1 RT (Saccharomyces cerevisiae, UniProt P47098, D1428N); details: Mn^2+ at A site, Mg^2+ at B site; unlikely for Wt.
[5] = target: hetero-dimeric HIV-1 RT (Human immunodeficiency virus type 1 group M subtype B, UniProt P04585); details: purified hetero-dimeric HIV-1 RT; poly(rC) template; excess Mg^2+; 37° C.
Protocol: as §1, §2

[6] = system: M-MuLV RT; details: purified M-MuLV RT, with or without its associated RNase H
Protocol: as §1, §2

[7] = system: AMV RT; details: purified AMV RT; excess Mg^2+
Protocol: as §1, §2

[8] = target: Ty1 VLPs (Saccharomyces cerevisiae, UniProt P47098)
Protocol: as §1

[9] = Wt. Ty1 RT, fit to Hill equation
[10] = D211N Ty1 RT, fit to Hill equation

Sequence of Ty1 RT (Saccharomyces cerevisiae, UniProt P47098, D1428N) (P47098 1103-1755 D1428N): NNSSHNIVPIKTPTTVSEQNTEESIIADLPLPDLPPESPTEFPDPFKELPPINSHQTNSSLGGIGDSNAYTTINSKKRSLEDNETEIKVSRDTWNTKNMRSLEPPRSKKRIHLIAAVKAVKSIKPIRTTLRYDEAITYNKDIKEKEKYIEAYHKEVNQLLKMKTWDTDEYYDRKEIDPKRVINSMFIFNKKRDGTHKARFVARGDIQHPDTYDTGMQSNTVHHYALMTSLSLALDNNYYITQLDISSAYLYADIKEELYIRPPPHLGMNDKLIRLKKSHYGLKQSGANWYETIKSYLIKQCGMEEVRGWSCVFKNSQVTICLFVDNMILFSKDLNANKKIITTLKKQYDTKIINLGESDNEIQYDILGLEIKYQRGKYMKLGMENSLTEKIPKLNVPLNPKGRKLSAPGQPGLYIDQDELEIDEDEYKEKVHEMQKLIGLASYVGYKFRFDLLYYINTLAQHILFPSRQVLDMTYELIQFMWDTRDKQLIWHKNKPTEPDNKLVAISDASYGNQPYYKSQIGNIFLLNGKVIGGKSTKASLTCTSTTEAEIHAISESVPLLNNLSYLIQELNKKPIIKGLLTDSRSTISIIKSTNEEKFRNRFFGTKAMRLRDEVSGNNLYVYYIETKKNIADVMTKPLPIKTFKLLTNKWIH

SMILES	Kd [1]	Proposed divalent cation binding affinity, A site ([1]; Wt. Ty1 RT)	Proposed divalent cation binding affinity, B site ([1]; Wt. Ty1 RT)	n (Hill coefficient) of metal activation [1, 9]	Proposed activity of Ty1 RT, same metal at A site and B site [2]	Kd [3]	Proposed divalent cation binding affinity, A site ([3]; D211N Ty1 RT)	Proposed divalent cation binding affinity, B site ([3]; D211N Ty1 RT)	n (Hill coefficient) of metal activation [3, 10]	further results
[Ca+2].[Cl-].[Cl-] [Ca^2+, CaCl2, reference compound]	–	–	–	–	–	–	–	–	–	Inhibition of Ty1 RT in control competition experiment ([1]; Ca^2+ substituted for Mn^2+, in presence of Mg^2+ (FIG. 4C)): no significant inhibition
[Mg+2] [Mg^2+, MgCl2]	0.13 ± 0.04 mM	very high affinity for Mg^2+	low affinity for Mg^2+	1.7 ± 0.1	high	6.3 ± 0.2 mM	very low affinity for Mg^2+	low affinity for Mg^2+	2.1 ± 0.1	–
[Mn+2] [Mn^2+, MnCl2]	19.9 ± 1.6 mM	very low affinity for Mn^2+	high affinity for Mn^2+	2.3 ± 0.2	low	0.02 ± 0.003 mM	very high affinity for Mn^2+	high affinity for Mn^2+	2.1 ± 0.1	kcat of metal activation [1, 9]: 0.000156 ± 1.9e-05 s⁻¹; Mn^2+-dependent inhibition with DNA template ([1]; purified recombinant Ty1 RT, poly(dC) substituted for poly(rC)): Mn^2+-dependent inhibition was also observed; Ratio of Mn^2+ to Mg^2+ that reduced RT activity by 50% ([1]; purified recombinant Ty1 RT, poly(rC) template, excess Mg^2+): 1×10^−3; Proposed activity of Ty1 RT, Mg^2+ at A site and Mn^2+ at B site ([2]; Mn^2+ at B site, Mg^2+ at A site, unlikely for D211N): low; Proposed activity of Ty1 RT, Mn^2+ at A site and Mg^2+ at B site [4]: high; Ratio of Mn^2+ to Mg^2+ that reduced RT activity by 50% [5]: 7×10^−4; Effect of Mn^2+ on RT activity [6]: Increased activity at low Mn^2+ concentrations; Mn^2+-dependent inhibition of RT activity [7]: Even more dramatic Mn^2+-dependent inhibition; Ratio of Mn^2+ to Mg^2+ that reduced RT activity by 50% ([8]; RNA-directed DNA polymerization, poly(rC) template, excess Mg^2+): 8×10^−3; Mn^2+-dependent inhibition with DNA template ([8]; poly(dC) substituted for poly(rC)): Mn^2+-dependent inhibition was also observed; Ratio (Mn^2+ concentration to Mg^2+ concentration) at which the increase in activity peaks ([3]; D211N RT, Mn^2+ added in presence of Mg^2+): 0.02; kcat of metal activation [3, 10]: 0.000158 ± 8.3e-06 s⁻¹; Inhibition by increasing concentrations of Mn2+ ([3]; D211N Ty1 RT, printed: in the presence of excess Mn^2+ (FIG. 4D)): not inhibited
